# Results: patent US10647747B2, “Cyclosporin derivatives and uses thereof” (S&T Global Inc., priority 2010, dated 2020)
# *1 amine or outer side, *2 acyl side, *3 side chain or, on linkers, in order; H or OH if unused. Where a SMILES comes first, the peptide text is derived from it. [ ]: non-standard residue; d: D form. The star is where a group is joined. X3 = CC=CCC(C)C(O)C(C(=O)[*:2])N(C)[*:1]; X5 = CSCOC(C)(C)CC(C(=O)[*:2])N(C)[*:1]; X4 = CCN(CC)CCSC(C(=O)[*:2])N(C)[*:1]; NMeI = CC[CH](C)[CH](NC)C(=O)O; NMeL = CN[CH](CC(C)C)C(=O)O; NMeV = CN[CH](C(=O)O)C(C)C; Et2NCH2CH2 = CCN(CC)CC*; NMeC = CN[CH](CS)C(=O)O; NMeS = CN[CH](CO)C(=O)O; Abu = CC[CH](N)C(=O)O
# System: HCV replicon in cell line ET (luc-ubi-neo/ET), Huh7 human hepatoma
# Test: HCV subgenomic replicon assay, luciferase end point
# Format: cell-based
# Details: HCV subgenomic replicon, cell line ET (luc-ubi-neo/ET) Huh7, luciferase end point; read-out: Antiviral activity EC50
row,Compound,EC50
1,"CC=CCC(C)C(O)C1C(=O)NC(CC)C(=O)N(C)C(CSCCN(CC)CC)C(=O)N(C)C(C(C)C)C(=O)NC(C(C)C)C(=O)N(C)C(CC(C)C)C(=O)NC(C)C(=O)NC(C)C(=O)N(C)C(CC(C)C)C(=O)N(C)C(CC(C)C)C(=O)N(C)C(C(C)C)C(=O)N1C [[(S)-(2-(N,N-Diethylamino)ethylthio)methyl-Sar]-3-[N-MeVal]-4-cyclosporin] (cyclo([X3][Abu][NMeC](Et2NCH2CH2)[NMeV]V[NMeL]AA[NMeL][NMeL][NMeV]); configuration not given here)",140 nM
2,CC=CCC(C)C(O)C1C(=O)NC(CC)C(=O)N(C)C(CSCCCN2CCCC2)C(=O)N(C)C(CC(C)(C)OC)C(=O)NC(C(C)C)C(=O)N(C)C(CC(C)C)C(=O)NC(C)C(=O)NC(C)C(=O)N(C)C(CC(C)C)C(=O)N(C)C(CC(C)C)C(=O)N(C)C(C(C)C)C(=O)N1C (stereo not drawn),100 nM
3,CC=CCC(C)C(O)C1C(=O)NC(CC)C(=O)N(C)C(COCCN(C)C)C(=O)N(C)C(CC(C)(C)O)C(=O)NC(C(C)C)C(=O)N(C)C(CC(C)C)C(=O)NC(C)C(=O)NC(C)C(=O)N(C)C(CC(C)C)C(=O)N(C)C(CC(C)C)C(=O)N(C)C(C(C)C)C(=O)N1C (stereo not drawn),240 nM
4,C/C=C/C[C@@H](C)[C@@H](O)[C@H]1C(=O)N[C@@H](CC)C(=O)N(C)[C@H](CSCCCN2CCOCC2)C(=O)N(C)[C@@H](CC(C)(C)O)C(=O)N[C@@H](C(C)C)C(=O)N(C)[C@@H](CC(C)C)C(=O)N[C@@H](C)C(=O)N[C@H](C)C(=O)N(C)[C@@H](CC(C)C)C(=O)N(C)[C@@H](CC(C)C)C(=O)N(C)[C@@H](C(C)C)C(=O)N1C,50 nM
5,CC=CCC(C)C(O)C1C(=O)NC(CC)C(=O)N(C)C(COCCCN(CC)CC)C(=O)N(C)C(CC(C)(C)O)C(=O)NC(C(C)C)C(=O)N(C)C(CC(C)C)C(=O)NC(C)C(=O)NC(C)C(=O)N(C)C(CC(C)C)C(=O)N(C)C(CC(C)C)C(=O)N(C)C(C(C)C)C(=O)N1C (stereo not drawn),180 nM
6,CC=CCC(C)C(O)C1C(=O)NC(CC)C(=O)N(C)C(CSCCN2CCCC2)C(=O)N(C)C(CC(C)(C)O)C(=O)NC(C(C)C)C(=O)N(C)C(CC(C)C)C(=O)NC(C)C(=O)NC(C)C(=O)N(C)C(CC(C)C)C(=O)N(C)C(CC(C)C)C(=O)N(C)C(C(C)C)C(=O)N1C (stereo not drawn),110 nM
7,C/C=C/C[C@@H](C)[C@@H](O)[C@H]1C(=O)N[C@@H](CC)C(=O)N(C)[C@H](CSCCCN(CC)CC)C(=O)N(C)[C@@H](CC(C)(C)OC)C(=O)N[C@@H](C(C)C)C(=O)N(C)[C@@H](CC(C)C)C(=O)N[C@@H](C)C(=O)N[C@H](C)C(=O)N(C)[C@@H](CC(C)C)C(=O)N(C)[C@@H](CC(C)C)C(=O)N(C)[C@@H](C(C)C)C(=O)N1C,70 nM
8,CC=CCC(C)C(O)C1C(=O)NC(CC)C(=O)N(C)C(CSCCN(C)C)C(=O)N(C)C(CC(C)(C)OC)C(=O)NC(C(C)C)C(=O)N(C)C(CC(C)C)C(=O)NC(C)C(=O)NC(C)C(=O)N(C)C(CC(C)C)C(=O)N(C)C(CC(C)C)C(=O)N(C)C(C(C)C)C(=O)N1C (stereo not drawn),100 nM
9,CC=CCC(C)C(O)C1C(=O)NC(CC)C(=O)N(C)C(CSCCN(CC)C(C)C)C(=O)N(C)C(CC(C)(C)O)C(=O)NC(C(C)C)C(=O)N(C)C(CC(C)C)C(=O)NC(C)C(=O)NC(C)C(=O)N(C)C(CC(C)C)C(=O)N(C)C(CC(C)C)C(=O)N(C)C(C(C)C)C(=O)N1C (stereo not drawn),70 nM
10,CC=CCC(C)C(O)C1C(=O)NC(CC)C(=O)N(C)C(CSCCN2CCCC2)C(=O)N(C)C(CC(C)(C)OC)C(=O)NC(C(C)C)C(=O)N(C)C(CC(C)C)C(=O)NC(C)C(=O)NC(C)C(=O)N(C)C(CC(C)C)C(=O)N(C)C(CC(C)C)C(=O)N(C)C(C(C)C)C(=O)N1C (stereo not drawn),90 nM
11,"CC=CCC(C)C(O)C1C(=O)NC(CC)C(=O)N(C)C(COCCN(CC)CC)C(=O)N(C)C(C(C)CC)C(=O)NC(C(C)C)C(=O)N(C)C(CC(C)C)C(=O)NC(C)C(=O)NC(C)C(=O)N(C)C(CC(C)C)C(=O)N(C)C(CC(C)C)C(=O)N(C)C(C(C)C)C(=O)N1C [[(R)-(2-(N,N-Diethylamino)ethoxy)methyl-Sar]-3-[N-MeIle]-4-cyclosporin] (cyclo([X3][Abu][NMeS](Et2NCH2CH2)[NMeI]V[NMeL]AA[NMeL][NMeL][NMeV]); configuration not given here)",160 nM
12,C/C=C/C[C@@H](C)[C@@H](O)[C@H]1C(=O)N[C@@H](CC)C(=O)N(C)[C@H](COCCN(C)C)C(=O)N(C)[C@@H](CC(C)(C)OC)C(=O)N[C@@H](C(C)C)C(=O)N(C)[C@@H](CC(C)C)C(=O)N[C@@H](C)C(=O)N[C@H](C)C(=O)N(C)[C@@H](CC(C)C)C(=O)N(C)[C@@H](CC(C)C)C(=O)N(C)[C@@H](C(C)C)C(=O)N1C,150 nM
13,CC=CCC(C)C(O)C1C(=O)NC(CC)C(=O)N(C)C(CSCCN2CCN(C)CC2)C(=O)N(C)C(CC(C)(C)O)C(=O)NC(C(C)C)C(=O)N(C)C(CC(C)C)C(=O)NC(C)C(=O)NC(C)C(=O)N(C)C(CC(C)C)C(=O)N(C)C(CC(C)C)C(=O)N(C)C(C(C)C)C(=O)N1C (stereo not drawn),90 nM
14,CC=CCC(C)C(O)C1C(=O)NC(CC)C(=O)N(C)C(COCCN2CCOCC2)C(=O)N(C)C(CC(C)(C)OC)C(=O)NC(C(C)C)C(=O)N(C)C(CC(C)C)C(=O)NC(C)C(=O)NC(C)C(=O)N(C)C(CC(C)C)C(=O)N(C)C(CC(C)C)C(=O)N(C)C(C(C)C)C(=O)N1C [[(R)-(2-(N-Morpholino)ethoxy)methyl-Sar]-3-[(γ-methoxy)-N-MeLeu]-4-cyclosporin],150 nM

# Same assay, conditions: Hepatitis C virus, Huh-7, HCV subgenomic replicon, cell line ET (luc-ubi-neo/ET) Huh7, luciferase end point; read-out: Antiviral activity EC50
row,Compound,EC50
1,"C/C=C/C[C@@H](C)[C@@H](O)[C@H]1C(=O)N[C@@H](CC)C(=O)N(C)[C@H](COCCN(C)C)C(=O)N(C)[C@@H](CC(C)C)C(=O)N[C@@H](C(C)C)C(=O)N(C)[C@@H](CC(C)C)C(=O)N[C@@H](C)C(=O)N[C@H](C)C(=O)N(C)[C@@H](CC(C)C)C(=O)N(C)[C@@H](CC(C)C)C(=O)N(C)[C@@H](C(C)C)C(=O)N1C [[(R)-(2-(N,N-Dimethylamino)ethoxy)methyl-Sar]-3-cyclosporin]",150 nM
2,C/C=C/C[C@@H](C)[C@@H](O)[C@H]1C(=O)N[C@@H](CC)C(=O)N(C)[C@H](CSCCNC(C)C)C(=O)N(C)[C@@H](CC(C)(C)O)C(=O)N[C@@H](C(C)C)C(=O)N(C)[C@@H](CC(C)C)C(=O)N[C@@H](C)C(=O)N[C@H](C)C(=O)N(C)[C@@H](CC(C)C)C(=O)N(C)[C@@H](CC(C)C)C(=O)N(C)[C@@H](C(C)C)C(=O)N1C,190 nM

# Same assay, conditions: Hepatitis C virus, Huh-7, Table 14, HCV replicon luciferase; read-out: Antiviral activity EC50
row,Compound,EC50
1,C/C=C/C[C@@H](C)[C@@H](O)[C@H]1C(=O)N[C@@H](CC)C(=O)N(C)[C@H](CSCCN2CCCCC2)C(=O)N(C)[C@@H](CC(C)(C)O)C(=O)N[C@@H](C(C)C)C(=O)N(C)[C@@H](CC(C)C)C(=O)N[C@@H](C)C(=O)N[C@H](C)C(=O)N(C)[C@@H](CC(C)C)C(=O)N(C)[C@@H](CC(C)C)C(=O)N(C)[C@@H](C(C)C)C(=O)N1C,40 nM
2,C/C=C/C[C@@H](C)[C@@H](O)[C@H]1C(=O)N[C@@H](CC)C(=O)N(C)[C@H](CSCCN2CCN(C)CC2)C(=O)N(C)[C@@H](CC(C)(C)O)C(=O)N[C@@H](C(C)C)C(=O)N(C)[C@@H](CC(C)C)C(=O)N[C@@H](C)C(=O)N[C@H](C)C(=O)N(C)[C@@H](CC(C)C)C(=O)N(C)[C@@H](CC(C)C)C(=O)N(C)[C@@H](C(C)C)C(=O)N1C,30 nM

# Same assay, conditions: Table 12, HCV replicon luciferase; read-out: Antiviral activity EC50
row,Compound,EC50
1,"CC=CCC(C)C(O)C1C(=O)NC(CC)C(=O)N(C)C(SCCN(C)C)C(=O)N(C)C(C(C)C)C(=O)NC(C(C)C)C(=O)N(C)C(CC(C)C)C(=O)NC(C)C(=O)NC(C)C(=O)N(C)C(CC(C)C)C(=O)N(C)C(CC(C)C)C(=O)N(C)C(C(C)C)C(=O)N1C [(S)-2-(N,N-Dimethylamino)ethylthio-Sar]-3-[N-MeVal]-4-cyclosporin]",130 nM
2,CC=CCC(C)C(O)C1C(=O)NC(CC)C(=O)N(C)C(SCCNCC(C)(C)C)C(=O)N(C)C(CC(C)C)C(=O)NC(C(C)C)C(=O)N(C)C(CC(C)C)C(=O)NC(C)C(=O)NC(C)C(=O)N(C)C(CC(C)C)C(=O)N(C)C(CC(C)C)C(=O)N(C)C(C(C)C)C(=O)N1C [(S)-2-(N-neo-Pentylamino)ethylthio-Sar]-3-cyclosporin],230 nM
3,CC=CCC(C)C(O)C1C(=O)NC(CC)C(=O)N(C)C(SCCN(CC)CC)C(=O)N(C)C(CC(C)C)C(=O)NC(C(C)C)C(=O)N(C)C(CC(C)C)C(=O)NC(C)C(=O)NC(C)C(=O)N(C)C(CC(C)C)C(=O)N(C)C(CC(C)C)C(=O)N(C)C(C(C)C)C(=O)N1C [(S)-2-(N-Diethylamino)ethylthio-Sar]-3-cyclosporin],160 nM

# Same assay, conditions: Table 13, HCV replicon luciferase; read-out: Antiviral activity EC50
row,Compound,EC50
1,CC=CCC(C)C(O)C1C(=O)NC(CC)C(=O)N(C)C(SCCCN2CCOCC2)C(=O)N(C)C(CC(C)(C)OC)C(=O)NC(C(C)C)C(=O)N(C)C(CC(C)C)C(=O)NC(C)C(=O)NC(C)C(=O)N(C)C(CC(C)C)C(=O)N(C)C(CC(C)C)C(=O)N(C)C(C(C)C)C(=O)N1C [[(S)-3-(N-Morpholino)propylthio-Sar]-3-[(γ-methoxy)-N-MeLeu]-4-cyclosporin],60 nM
2,C/C=C/C[C@@H](C)[C@@H](O)[C@H]1C(=O)N[C@@H](CC)C(=O)N(C)CC(=O)N(C)[C@@H](CC(C)(C)OCSC)C(=O)N[C@@H](C(C)C)C(=O)N(C)[C@@H](CC(C)C)C(=O)N[C@@H](C)C(=O)N[C@H](C)C(=O)N(C)[C@@H](CC(C)C)C(=O)N(C)[C@@H](CC(C)C)C(=O)N(C)[C@@H](C(C)C)C(=O)N1C [[(γ-Methylthio)methoxy-N-MeLeu]-4-cyclospori],400 nM
3,CC=CCC(C)C(O)C1C(=O)NC(CC)C(=O)N(C)C(SCCN(CC)CC)C(=O)N(C)C(CC(C)(C)OCSC)C(=O)NC(C(C)C)C(=O)N(C)C(CC(C)C)C(=O)NC(C)C(=O)NC(C)C(=O)N(C)C(CC(C)C)C(=O)N(C)C(CC(C)C)C(=O)N(C)C(C(C)C)C(=O)N1C (stereo not drawn) (cyclo([X3][Abu][X4][X5]V[NMeL]AA[NMeL][NMeL][NMeV]); configuration not given here),130 nM

# Same assay, conditions: Table 16, HCV replicon luciferase; read-out: Antiviral activity EC50
row,Compound,EC50
1,CC=CCC(C)C(O)C1C(=O)NC(CC)C(=O)N(C)C(CSCCCN2CCN(CCC)CC2)C(=O)N(C)C(CC(C)(C)O)C(=O)NC(C(C)C)C(=O)N(C)C(CC(C)C)C(=O)NC(C)C(=O)NC(C)C(=O)N(C)C(CC(C)C)C(=O)N(C)C(CC(C)C)C(=O)N(C)C(C(C)C)C(=O)N1C (stereo not drawn),50 nM
2,C/C=C/C[C@@H](C)[C@@H](O)[C@H]1C(=O)N[C@@H](CC)C(=O)N(C)[C@H](CSCCCN2CCOCC2)C(=O)N(C)[C@@H](CC(C)(C)O)C(=O)N[C@@H](C(C)C)C(=O)N(C)[C@@H](CC(C)C)C(=O)N[C@@H](C)C(=O)N[C@H](C)C(=O)N(C)[C@@H](CC(C)C)C(=O)N(C)[C@@H](CC(C)C)C(=O)N(C)[C@@H](C(C)C)C(=O)N1C,40 nM
3,CC=CCC(C)C(O)C1C(=O)NC(CC)C(=O)N(C)C(CSCCCCOCCN(CC)CC)C(=O)N(C)C(CC(C)(C)O)C(=O)NC(C(C)C)C(=O)N(C)C(CC(C)C)C(=O)NC(C)C(=O)NC(C)C(=O)N(C)C(CC(C)C)C(=O)N(C)C(CC(C)C)C(=O)N(C)C(C(C)C)C(=O)N1C (stereo not drawn),50 nM
